From ChEMBL document CHEMBL1131330, “d-Fused [1]benzazepines with selective in vitro antitumor activity: synthesis and structure-activity relationships” (1998)

What was measured:
Type in all cases: functional
[1] = test system: TK-10; experiment: Compound was tested for antitumor activity against TK-10 renal cancer cell line(molar concentration that inhibits 50% net cell growth); conditions: Homo sapiens
[2] = test system: 786-0; experiment: Compound was tested for antitumor activity against 786-0 renal cancer cell line(molar concentration that inhibits 50% net cell growth).; conditions: Homo sapiens
[3] = test system: ACHN; experiment: Compound was tested for antitumor activity against ACHN renal cancer cell line(molar concentration leading to 50% net cell death).; conditions: Homo sapiens
[4] = test system: ACHN; experiment: Compound was tested for antitumor activity against ACHN renal cancer cell line(molar concentration that inhibits 50% net cell growth).; conditions: Homo sapiens
[5] = test system: 786-0; experiment: Compound was tested for antitumor activity against 786-0 renal cancer cell line(molar concentration leading to 50% net cell death); conditions: Homo sapiens, read-out: Log LC50 (the source's name) (converted)
[6] = test system: TK-10; experiment: Compound was tested for antitumor activity against TK-10 renal cancer cell line(molar concentration leading to 50% net cell death); conditions: Homo sapiens

SMILES	GI50 [1]	GI50 [2]	LC50 (50% net cell death) [3]	GI50 [4]	CC50 [5]	LC50 (concentration causing 50% net cell death) [6]
O=C1Cc2c(-c3ccccc3)cc(-c3cccc(Cl)c3)nc2-c2ccccc2N1	1.48 µM	0.977 µM	24.5 µM	1.15 µM	5.37 µM	17.4 µM
SC1=Nc2ccccc2-c2nc(-c3cccc(Cl)c3)cc(-c3ccccc3)c2C1	0.437 µM	0.977 µM	19.1 µM	0.617 µM	4.79 µM	9.55 µM
O=C1Cc2c(-c3ccc(Br)cc3)cc(-c3ccccc3)nc2-c2ccccc2N1	0.186 µM	1.62 µM	50.1 µM	3.98 µM	9.55 µM	2.24 µM
SC1=Nc2ccccc2-c2nc(-c3ccccc3)cc(-c3ccc(Br)cc3)c2C1	1.78 µM	0.631 µM	5.89 µM	0.871 µM	4.47 µM	7.76 µM
O=C1Cc2c(-c3ccccc3)cc(-c3ccccc3)nc2-c2ccccc2N1	2.45 µM	4.17 µM	70.8 µM	4.07 µM	> 100 µM	> 100 µM
SC1=Nc2ccc(Br)cc2-c2nc(-c3ccccc3)cc(-c3ccccc3)c2C1	1.23 µM	1.17 µM	8.51 µM	0.741 µM	7.08 µM	18.6 µM
O=C1Cc2c(-c3ccccc3)cc(-c3ccccc3)nc2-c2cc(Br)ccc2N1	0.427 µM	0.631 µM	15.5 µM	1.26 µM	4.79 µM	9.12 µM
